The record followed here is PubChem BioAssay (NCI).

Among the test systems are COLO 205 colon; HCT-15 colon; HL-60(TB) leukemia; IGROV1 ovarian; NCI-H522 lung; SF-268 CNS; SK-MEL-5 melanoma; T-47D breast; UO-31 renal; SK-MEL-28 melanoma.
What all share (assay): inhibition of tumour cell growth, NCI panel, 48 h

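Test compounds were applied to cells in 96-well plates for 48 hours at 5 doses. The concentration for 50% growth inhibition is given as GI50. TGI denotes the concentration required for complete inhibition of growth.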

Take `COc1ccc(/C=C2\CC(C)CC3C2=NN(C(C)=O)C3c2ccc(OC)cc2)cc1` (stereo not drawn): the GI50 in the assay on COLO 205 colon was 25.7 µM; in the assay with HCT-15 colon, 16 µM; with HL-60(TB) leukemia, 13.7 µM; in the assay with IGROV1 ovarian, 31.6 µM; in the assay with NCI-H522 lung, 21.5 µM; with SF-268 CNS, 20.8 µM. Also, the results for the GI50 in the assay on SK-MEL-5 melanoma, with T-47D breast and in the assay on UO-31 renal were 13.9 µM, 25.7 µM and 19 µM, respectively. For the same compound, the TGI in the assay with COLO 205 colon is 92.5 µM; in the assay on HCT-15 colon, 38.7 µM; in the assay with HL-60(TB) leukemia it was 61 µM; in the assay with IGROV1 ovarian, more than 100 µM; in the assay with NCI-H522 lung, 83.9 µM; in the assay on SF-268 CNS, 53.2 µM. Besides, the TGI in the assay on SK-MEL-5 melanoma is 31.3 µM; in the assay with T-47D breast, more than 100 µM; in the assay on UO-31 renal it was 64.8 µM.

Turning to `Cc1cc(O)c(C2=NN(c3ccc(S(N)(=O)=O)cc3)C(c3ccc(N(C)C)cc3)C2)c(C)c1Cl` (stereo not drawn), the GI50 in the assay with COLO 205 colon was 12.3 µM; in the assay on HCT-15 colon it was 14.2 µM; with HL-60(TB) leukemia, 20.3 µM; in the assay on IGROV1 ovarian, 18.3 µM; with NCI-H522 lung, 18.6 µM; with SF-268 CNS, 18.7 µM. In addition, the GI50 with SK-MEL-28 melanoma was 19.4 µM; in the assay with SK-MEL-5 melanoma, 14.5 µM; with T-47D breast, 5.72 µM; in the assay on UO-31 renal, 12.7 µM. In addition, the TGI with COLO 205 colon was 25.4 µM; in the assay with HCT-15 colon it was 32 µM; in the assay on HL-60(TB) leukemia, 50 µM; in the assay on IGROV1 ovarian, 59 µM; with NCI-H522 lung, 48.4 µM; with SF-268 CNS, 37.2 µM. In addition, the TGI stood at 35.6 µM in the assay on SK-MEL-28 melanoma, 27.8 µM in the assay on SK-MEL-5 melanoma, 19.7 µM in the assay on T-47D breast and 29.4 µM in the assay on UO-31 renal.

For the compound `Nc1nc2cc3ccc(C4CC(O)C(CO)O4)cc3cc2c(=O)[nH]1` (stereo not drawn), the GI50 in the assay with COLO 205 colon, in the assay on HCT-15 colon, in the assay on IGROV1 ovarian, in the assay with NCI-H522 lung, in the assay with SF-268 CNS and with SK-MEL-28 melanoma was more than 100 µM each time. For the same compound, the figures for the GI50 with SK-MEL-5 melanoma, in the assay with T-47D breast and in the assay with UO-31 renal were more than 100 µM, more than 100 µM and 94.6 µM, respectively. The TGI in the assay on COLO 205 colon, in the assay on HCT-15 colon, with IGROV1 ovarian, in the assay with NCI-H522 lung, in the assay with SF-268 CNS and in the assay with SK-MEL-28 melanoma was more than 100 µM in each case. For the same compound, the TGI in the assay with SK-MEL-5 melanoma, in the assay on T-47D breast and with UO-31 renal was more than 100 µM throughout.

Turning to `O=C(Nc1ccccc1O)c1ccc(CNc2ccnc(C(F)(F)F)c2)cc1`, the GI50 in the assay with COLO 205 colon is 14.7 µM; in the assay on HCT-15 colon, 11.8 µM; with HL-60(TB) leukemia it was 1.85 µM; with IGROV1 ovarian, 7.64 µM; in the assay with SF-268 CNS, 4.55 µM; in the assay on SK-MEL-28 melanoma, 3.52 µM. Also, the results for the GI50 in the assay on SK-MEL-5 melanoma, in the assay on T-47D breast and with UO-31 renal were 2.2 µM, 2.5 µM and 2.15 µM, respectively. Further, the TGI is 31.3 µM in the assay on COLO 205 colon; more than 100 µM in the assay with HCT-15 colon; 8.03 µM with HL-60(TB) leukemia; 32.9 µM in the assay with IGROV1 ovarian; 26.3 µM in the assay with SF-268 CNS; 23.4 µM with SK-MEL-28 melanoma. Also, the TGI in the assay on SK-MEL-5 melanoma amounted to 10.2 µM; with T-47D breast, 24.8 µM; with UO-31 renal, 14 µM.

Take `COc1cc2c3c(n(CCCNCCCNCCCNCCCN)c(=O)c2cc1OC)-c1cc2c(cc1C3=O)OCO2`: the GI50 was 1.49 µM in the assay on COLO 205 colon; 6.77 µM in the assay on HCT-15 colon; 1.36 µM in the assay with HL-60(TB) leukemia; 3.72 µM in the assay on IGROV1 ovarian; 3.61 µM in the assay on NCI-H522 lung; 1.7 µM with SF-268 CNS. The GI50 with SK-MEL-28 melanoma was 2.29 µM; in the assay with T-47D breast, 2.36 µM; in the assay with UO-31 renal, 7.39 µM. Further, the TGI with COLO 205 colon is more than 100 µM; in the assay with HCT-15 colon, 29 µM; with HL-60(TB) leukemia it was 3.3 µM; in the assay on IGROV1 ovarian it was more than 100 µM; in the assay with NCI-H522 lung, more than 100 µM; with SF-268 CNS it was 4.33 µM. Further, the TGI with SK-MEL-28 melanoma is 25.2 µM; in the assay with T-47D breast, more than 100 µM; with UO-31 renal, more than 100 µM.

With `Clc1ccc(C2=Nn3c(nnc3-c3cc(Cl)cc(Cl)c3Cl)SC2)cc1`, the GI50 in the assay with COLO 205 colon is 52.8 µM; with HCT-15 colon, 22.3 µM; with HL-60(TB) leukemia, 7.26 µM; in the assay on IGROV1 ovarian, 6.8 µM; with NCI-H522 lung, 12.7 µM; in the assay on SF-268 CNS, 16.5 µM. The GI50 in the assay with SK-MEL-28 melanoma was more than 100 µM; with SK-MEL-5 melanoma, 23.5 µM; with T-47D breast, more than 100 µM. In addition, the TGI was more than 100 µM with COLO 205 colon; more than 100 µM in the assay on HCT-15 colon; 30.7 µM with HL-60(TB) leukemia; 24.7 µM with IGROV1 ovarian; 46.2 µM in the assay on NCI-H522 lung; more than 100 µM in the assay with SF-268 CNS. The TGI in the assay on SK-MEL-28 melanoma, with SK-MEL-5 melanoma and in the assay with T-47D breast was more than 100 µM each time.

Consider `CCN(CC)CCCC(C)Nc1nc(C)cc(Nc2ccc3nc(C)cc(N)c3c2)n1` (stereo not drawn), for which the GI50 in the assay with COLO 205 colon was 39.5 µM; with HCT-15 colon, more than 100 µM; in the assay on IGROV1 ovarian, 28 µM; in the assay with NCI-H522 lung, 23.9 µM; in the assay on SF-268 CNS it was 22.1 µM; in the assay on SK-MEL-28 melanoma, 24.3 µM. Also, the GI50 in the assay with SK-MEL-5 melanoma is more than 100 µM; with T-47D breast it was 28.6 µM; in the assay with UO-31 renal, 86.1 µM. Also, the TGI with COLO 205 colon was more than 100 µM; in the assay on HCT-15 colon, more than 100 µM; in the assay with IGROV1 ovarian, more than 100 µM; in the assay on NCI-H522 lung, 91.9 µM; in the assay on SF-268 CNS, 50.9 µM; in the assay with SK-MEL-28 melanoma it was 50.1 µM. In addition, the results for the TGI with SK-MEL-5 melanoma, in the assay on T-47D breast and in the assay on UO-31 renal were more than 100 µM, 99.4 µM and more than 100 µM, respectively.

With `CC#C/C(=N\OC[C@H]1COCCN1)c1ccc2ncnc(Nc3ccc(OCc4cccc(F)c4)c(Cl)c3)c2c1`, the GI50 is 1.77 µM with COLO 205 colon; 1.41 µM with HCT-15 colon; 2.04 µM in the assay on HL-60(TB) leukemia; 0.393 µM in the assay on NCI-H522 lung; 1.77 µM in the assay with SK-MEL-28 melanoma; 1.85 µM in the assay with SK-MEL-5 melanoma. The GI50 in the assay with T-47D breast was 0.0582 µM; in the assay with UO-31 renal it was 1.13 µM. The TGI in the assay on COLO 205 colon amounted to 3.33 µM; with HCT-15 colon, 2.81 µM; in the assay on HL-60(TB) leukemia, 4.57 µM; in the assay on NCI-H522 lung, 2.25 µM; in the assay with SK-MEL-28 melanoma it was 3.34 µM; in the assay on SK-MEL-5 melanoma, 3.45 µM. For the same compound, the TGI with T-47D breast amounted to 4.47 µM; with UO-31 renal, 2.41 µM.

Consider `CCCCCCCCCCCCCCCC[N+](C)(CCO)Cc1cnc[nH]1` (stereo not drawn), for which the GI50 in the assay with HCT-15 colon is 3.03 µM; in the assay on HL-60(TB) leukemia, 0.39 µM; in the assay on SK-MEL-28 melanoma it was 2.7 µM; in the assay with T-47D breast, 2.8 µM; in the assay with UO-31 renal it was 23 µM. In addition, the TGI was 26.1 µM in the assay on HCT-15 colon; 2 µM in the assay on HL-60(TB) leukemia; 9.78 µM in the assay with SK-MEL-28 melanoma; 28.1 µM in the assay on T-47D breast; more than 100 µM with UO-31 renal.

Regarding `COC(=O)Nc1nc2ccc(C(=O)c3ccc(N(C)C4COC4)cc3)cc2[nH]1`, the GI50 is 0.285 µM in the assay on COLO 205 colon; 0.303 µM with HCT-15 colon; 0.266 µM in the assay on HL-60(TB) leukemia; 0.905 µM with IGROV1 ovarian; 0.337 µM in the assay with NCI-H522 lung; 0.745 µM with SF-268 CNS. In addition, the values for the GI50 in the assay with SK-MEL-28 melanoma, in the assay on SK-MEL-5 melanoma and with UO-31 renal were more than 100 µM, 0.425 µM and 0.883 µM, respectively. Also, the TGI was 1.03 µM in the assay on COLO 205 colon; more than 100 µM in the assay on HCT-15 colon; 2.85 µM in the assay on HL-60(TB) leukemia; more than 100 µM in the assay with IGROV1 ovarian; 4.34 µM in the assay on NCI-H522 lung; more than 100 µM in the assay on SF-268 CNS. For the same compound, the TGI in the assay on SK-MEL-28 melanoma was more than 100 µM; with SK-MEL-5 melanoma it was 3.99 µM; in the assay with UO-31 renal, more than 100 µM.

With `O=C(Nc1cccc(Cc2cccc(NC(=O)c3ccccc3)c2)c1)c1ccccc1`, the TGI in the assay with COLO 205 colon, with HCT-15 colon, in the assay on HL-60(TB) leukemia, in the assay with IGROV1 ovarian, in the assay on NCI-H522 lung and in the assay on SF-268 CNS was more than 100 µM each time. For the same compound, the TGI in the assay with SK-MEL-28 melanoma was more than 100 µM; in the assay on SK-MEL-5 melanoma, more than 100 µM; in the assay with UO-31 renal, 66.3 µM.

For `CC1(C)OB(O)OC1(C)C`, the TGI in the assay on COLO 205 colon, in the assay on HCT-15 colon, in the assay on HL-60(TB) leukemia, in the assay on IGROV1 ovarian, in the assay with NCI-H522 lung and with SF-268 CNS was more than 100 µM in each case. The TGI in the assay with SK-MEL-28 melanoma, in the assay on SK-MEL-5 melanoma and in the assay on UO-31 renal was more than 100 µM throughout.

As for `O=C(/C=C/C=C/c1c(C2CC2)nc2ccccc2c1-c1ccc(F)cc1)c1cccs1`, the GI50 in the assay with HCT-15 colon was 1.06 µM; with HL-60(TB) leukemia it was 1.58 µM; in the assay with IGROV1 ovarian it was 1.59 µM; in the assay with NCI-H522 lung, 2.52 µM; with SF-268 CNS, 3.35 µM; in the assay with SK-MEL-28 melanoma, 3.57 µM. The GI50 in the assay on SK-MEL-5 melanoma was 1.34 µM; with T-47D breast, 0.718 µM; in the assay with UO-31 renal, 1.16 µM. Also, the TGI is 3.92 µM with HCT-15 colon; 5.48 µM with HL-60(TB) leukemia; more than 100 µM in the assay on IGROV1 ovarian; 9.09 µM in the assay with NCI-H522 lung; more than 100 µM with SF-268 CNS; more than 100 µM in the assay with SK-MEL-28 melanoma. In addition, the values for the TGI in the assay on SK-MEL-5 melanoma, in the assay on T-47D breast and in the assay on UO-31 renal were 2.74 µM, 65.6 µM and 3.05 µM, respectively.
